System: 171881-019-R-J1-PDC tumor spheroid viability
Assay: Anticancer human tumor 171881-019-R-J1-PDC patient-derived invasive breast carcinoma cell line growth inhibition [PI3K]
Conditions: spheroids with HUVEC and MSC; for IC50: curve of first compound; for viability, T/C: stronger effect = lower value
Outline: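 Multi-cell spheroids combine tumor cells with HUVEC and human MSCs, treated with targeted agents alone or with inavolisib, alpelisib, duvelisib or copanlisib. Concentrations fall in half-log steps from at or near clinical Cmax, or from 10 microM where Cmax is unknown; viability read-out.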
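Note: spheroids exposed to compound for 7 days before viability read.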
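Throughout, for viability, T/C: 100% = DMSO vehicle-treated spheroids.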

Cn1ncc(Cl)c1-c1cc(C(=O)NC(CN)Cc2cccc(F)c2)sc1Cl (centres undefined) + CC(Nc1ccc2c(c1)OCCn1cc(N3C(=O)OCC3C(F)F)nc1-2)C(N)=O
IC50 (second compound 0.00316 µM): 149 nM | IC50 (second compound 0.01 µM): 134 nM | IC50 (second compound 0.0316 µM): 54.2 nM | IC50 (second compound 0.1 µM): < 31.6 nM | IC50 (second compound 0.316 µM): < 31.6 nM | IC50 (second compound 1 µM): < 31.6 nM | viability, T/C (second compound 0.00316 µM, first compound 0.0316 µM): 70% | viability, T/C (second compound 0.00316 µM, first compound 0.1 µM): 59.1% | viability, T/C (second compound 0.00316 µM, first compound 0.316 µM): 34.8% | viability, T/C (second compound 0.00316 µM, first compound 1 µM): 21.2% | viability, T/C (second compound 0.00316 µM, first compound 3.16 µM): 12.9% | viability, T/C (second compound 0.00316 µM, first compound 10 µM): 4.9% | viability, T/C (second compound 0.01 µM, first compound 0.0316 µM): 64.1% | viability, T/C (second compound 0.01 µM, first compound 0.1 µM): 58.1% | viability, T/C (second compound 0.01 µM, first compound 0.316 µM): 31.4% | viability, T/C (second compound 0.01 µM, first compound 1 µM): 17.3% | viability, T/C (second compound 0.01 µM, first compound 3.16 µM): 12.5% | viability, T/C (second compound 0.01 µM, first compound 10 µM): 4.16% | viability, T/C (second compound 0.0316 µM, first compound 0.0316 µM): 53.6% | viability, T/C (second compound 0.0316 µM, first compound 0.1 µM): 46.4% | viability, T/C (second compound 0.0316 µM, first compound 0.316 µM): 29.3% | viability, T/C (second compound 0.0316 µM, first compound 1 µM): 15.6% | viability, T/C (second compound 0.0316 µM, first compound 3.16 µM): 11.4% | viability, T/C (second compound 0.0316 µM, first compound 10 µM): 4.17% | viability, T/C (second compound 0.1 µM, first compound 0.0316 µM): 40.4% | viability, T/C (second compound 0.1 µM, first compound 0.1 µM): 33.5% | viability, T/C (second compound 0.1 µM, first compound 0.316 µM): 24.6% | viability, T/C (second compound 0.1 µM, first compound 1 µM): 15.1% | viability, T/C (second compound 0.1 µM, first compound 3.16 µM): 10.2% | viability, T/C (second compound 0.1 µM, first compound 10 µM): 4.94% | viability, T/C (second compound 0.316 µM, first compound 0.0316 µM): 27.2% | viability, T/C (second compound 0.316 µM, first compound 0.1 µM): 26.3% | viability, T/C (second compound 0.316 µM, first compound 0.316 µM): 18.1% | viability, T/C (second compound 0.316 µM, first compound 1 µM): 14.6% | viability, T/C (second compound 0.316 µM, first compound 3.16 µM): 9.75% | viability, T/C (second compound 0.316 µM, first compound 10 µM): 4.08% | viability, T/C (second compound 1 µM, first compound 0.0316 µM): 20.2% | viability, T/C (second compound 1 µM, first compound 0.1 µM): 18.1% | viability, T/C (second compound 1 µM, first compound 0.316 µM): 16.4% | viability, T/C (second compound 1 µM, first compound 1 µM): 12.9% | viability, T/C (second compound 1 µM, first compound 3.16 µM): 8.94% | viability, T/C (second compound 1 µM, first compound 10 µM): 3.85%

Cn1cnc2c(F)c(Nc3ccc(Br)cc3Cl)c(C(=O)NOCCO)cc21 + CC(Nc1ccc2c(c1)OCCn1cc(N3C(=O)OCC3C(F)F)nc1-2)C(N)=O
IC50 (second compound 0.00316 µM): 422 nM | IC50 (second compound 0.01 µM): 71 nM | IC50 (second compound 0.0316 µM): < 9.49 nM | IC50 (second compound 0.1 µM): < 9.49 nM | IC50 (second compound 0.316 µM): < 9.49 nM | IC50 (second compound 1 µM): < 9.49 nM | viability, T/C (second compound 0.00316 µM, first compound 0.00949 µM): 63.8% | viability, T/C (second compound 0.00316 µM, first compound 0.03 µM): 71.5% | viability, T/C (second compound 0.00316 µM, first compound 0.0949 µM): 64.9% | viability, T/C (second compound 0.00316 µM, first compound 0.3 µM): 56.4% | viability, T/C (second compound 0.00316 µM, first compound 0.949 µM): 34.3% | viability, T/C (second compound 0.00316 µM, first compound 3 µM): 15.4% | viability, T/C (second compound 0.01 µM, first compound 0.00949 µM): 60.4% | viability, T/C (second compound 0.01 µM, first compound 0.03 µM): 54.8% | viability, T/C (second compound 0.01 µM, first compound 0.0949 µM): 46.9% | viability, T/C (second compound 0.01 µM, first compound 0.3 µM): 40.9% | viability, T/C (second compound 0.01 µM, first compound 0.949 µM): 23.9% | viability, T/C (second compound 0.01 µM, first compound 3 µM): 10.1% | viability, T/C (second compound 0.0316 µM, first compound 0.00949 µM): 44.8% | viability, T/C (second compound 0.0316 µM, first compound 0.03 µM): 38.7% | viability, T/C (second compound 0.0316 µM, first compound 0.0949 µM): 33.9% | viability, T/C (second compound 0.0316 µM, first compound 0.3 µM): 26.8% | viability, T/C (second compound 0.0316 µM, first compound 0.949 µM): 16.4% | viability, T/C (second compound 0.0316 µM, first compound 3 µM): 6.34% | viability, T/C (second compound 0.1 µM, first compound 0.00949 µM): 30.6% | viability, T/C (second compound 0.1 µM, first compound 0.03 µM): 27.1% | viability, T/C (second compound 0.1 µM, first compound 0.0949 µM): 24.2% | viability, T/C (second compound 0.1 µM, first compound 0.3 µM): 17.7% | viability, T/C (second compound 0.1 µM, first compound 0.949 µM): 9.75% | viability, T/C (second compound 0.1 µM, first compound 3 µM): 2.93% | viability, T/C (second compound 0.316 µM, first compound 0.00949 µM): 20.9% | viability, T/C (second compound 0.316 µM, first compound 0.03 µM): 18.9% | viability, T/C (second compound 0.316 µM, first compound 0.0949 µM): 15.3% | viability, T/C (second compound 0.316 µM, first compound 0.3 µM): 11.7% | viability, T/C (second compound 0.316 µM, first compound 0.949 µM): 4.97% | viability, T/C (second compound 0.316 µM, first compound 3 µM): 1.75% | viability, T/C (second compound 1 µM, first compound 0.00949 µM): 16.9% | viability, T/C (second compound 1 µM, first compound 0.03 µM): 13.7% | viability, T/C (second compound 1 µM, first compound 0.0949 µM): 12.7% | viability, T/C (second compound 1 µM, first compound 0.3 µM): 8.33% | viability, T/C (second compound 1 µM, first compound 0.949 µM): 2.91% | viability, T/C (second compound 1 µM, first compound 3 µM): 1.25%

Reference: PubChem BioAssay AID1963986 (Molecular Pharmacology Branch, DTP, NCI, 2024)
